Assay results: patent publication US20250090514A1, “METHOD OF TREATING CANCER” (Laekna Limited, priority 2019, published 2025)
Read-outs that look alike come from different tables or passages of the source.

What was measured:
[1] = system: metastatic castration-resistant prostate cancer (mCRPC) patients; conditions: cited from earlier work
aldosterone synthesis = assay: Example C: aldosterone level and hyperaldosteronism; type: in vivo, human
Excerpt: Hyperaldosteronism is a disorder with several serious clinical symptoms including hypertension, hypokalemia, fatigue, headache, muscle weakness and numbness.

[2] = Body weight and tolerability in the Mini-PDX study; type: in vivo
Experimental: During the study, the care and use of animals were conducted in accordance with the regulations of the Association for Assessment and Accreditation of Laboratory Animal Care (AAALAC). After Mini-PDX device inoculation, the animals were checked daily for morbidity and mortality. At the time of routine monitoring, the animals were checked for any effects of treatments on normal behavior such as mobility, visual estimation of food and water consumption, body weight gain/loss, eye/hair matting and any other abnormal effect.
The body weight of mice was measured every day, and relative change of bodyweight was calculated for each mouse according to the following formula: RCBW(%)=(BWi−BW0)/BW0×100, BWi is the body weight after treatment on a given day, BW0 is the bodyweight on the first day of treatment.

| SMILES | unconfirmed rate of ≥50% PSA decline from baseline ([1]; chemotherapy-naive mCRPC patients (32 of 124)) | unconfirmed rate of ≥50% PSA decline from baseline ([1]; mCRPC patients with previous chemotherapy (16 of 57)) | aldosterone level vs baseline (aldosterone synthesis; baseline to Day 1 of Cycle 3, except Day 1 of Cycle 2 (similar to baseline), combination therapy) | clinical symptoms of hyperaldosteronism (aldosterone synthesis; during treatment with the combination therapy) | tolerability in the animals ([2]; afuresertib 75 mg/kg, CFG920 300 mg/kg) | Average RCBW (%)/Day 6 ([2]; relative change of body weight from day 0, afuresertib 75 mg/kg QD, CFG920 300 mg/kg BID) |
| --- | --- | --- | --- | --- | --- | --- |
| Cc1ccncc1N1CCN(c2ccnc(Cl)c2)C1=O [CFG920, 1-(2-chloro-pyridin-4-yl)-3-(4-methyl-pyridin-3-yl)-imidazolidin-2-one] | 26% | 28% | lower than the baseline level | did not cause any clinical symptoms of hyperaldosteronism | – | – |
| Cn1ncc(Cl)c1-c1cc(C(=O)N[C@H](CN)Cc2cccc(F)c2)sc1Cl [afuresertib, N-{(1S)-2-amino-1-[(3-fluorophenyl)methyl]ethyl}-5-chloro-4-(4-chloro-1-methyl-1H-pyrazol-5-yl)-2-thiophenecarboxamide] | – | – | – | – | tolerated well | −8.73% |
